This note sets out measurements from publication PMC12040169 (PLOS Biology, 2025).

A short description of this series: in vitro. The conditions noted are these: human, hela cells, % viability.

On to `O=C(Nc1cccc(S(=O)(=O)N2CCOCC2)c1)c1cc2ccccc2oc1=O` [CBK268170], for which the viability at 28.5 h, 10 µM was 107%. For `Cc1cc(C(=O)N2CC3CCCC(O)(c4cccn4C)C3C2)c(C)[nH]1` (centres unmarked) [CBK284514], the viability at 28.5 h, 10 µM amounted to 93.9%. In the case of `COc1cc(-c2cnc(N)c(N[C@H](CO)C(C)C)n2)cc(OC)c1OC` [CBK063765] it was 113%; in that of `C[N+](C)(C)Cc1ccccc1` [CBK011977I], 109%; in that of `COc1ccc(Sc2cc(C(F)(F)F)ccn2)cc1OC` [CBK093762], 92.5%.

For `O=C(Nc1nc2c(s1)CCCC2)c1ccccc1` [CBK287326], the viability at 28.5 h, 10 µM came out at 82.9%. As for `COc1cc2c(cc1OC)C(CCN)=NCC2` [CBK023947C], the viability at 28.5 h, 10 µM came to 86.6%. Take `C#CCNS(=O)(=O)c1cccc(C(=O)NCC2CCCN(C(C)C)C2)c1` (centres unmarked) [CBK305981]: the viability at 28.5 h, 10 µM came out at 109%.

As to `O=C(NCCO)c1cccc(-c2cc(N3CCCC3CO)n3nccc3n2)c1` (centres unmarked) [CBK037187], the viability at 28.5 h, 10 µM is 96.7%.

In the case of `Cc1ccc(CCSCC(=O)O)cn1` [CBK261072], the viability at 28.5 h, 10 µM came out at 95.3%.

Regarding `O=C(NNCc1ccccc1)c1cc(Br)cnc1N1CCN(C(=O)c2ccco2)CC1` [CBK076460], the viability at 28.5 h, 10 µM was determined as 101%. On to `NS(=O)(=O)c1ccc(NS(=O)(=O)c2ccc(NC(=O)Nc3ccc(Cl)cc3)cc2)cc1` [CBK264902], for which the viability at 28.5 h, 10 µM was 90.9%. Under `O=C(Cc1ccccc1)Nc1ccc(C(=O)O)cc1NC(=O)Cc1ccccc1` [CBK287049] stands 108%; under `CC(C)Cn1cncc1CNC(=O)Nc1ccc2c(cnn2C)c1` [CBK307405], 93.8%; under `COc1ccc([C@@]23CC[C@@H](NC(=O)Nc4ccc(C)c(F)c4F)C[C@@H]2N(C)CC3)cc1OC` [CBK073686T], 87.3%. Under `CN1CCN(C(=O)c2nc(SCc3ccccc3)ncc2Cl)CC1` [CBK269003] stands 86.7%; under `Cc1nc(Oc2ccccc2)c2c3c(sc2n1)CCCC3` [CBK131919], 101%; under `O=c1[nH]c(=O)n([C@H]2C[C@@H](O)[C@@H](CO)O2)cc1CO` [CBK201332], 94%. Under `O=C(c1cc2ncc(Br)cn2n1)N1CCOCC1` [CBK058513] stands 97.9%; under `CC(C)[C@H](CO)Nc1cncc(-c2ccc(F)cc2F)n1` [CBK065883], 92.3%; under `Cc1ccccc1CNC(=O)CCc1c(C)nc2nc(N)nn2c1C` [CBK304987], 108%. For the compound `Sc1nnc(-c2ccncc2)n1/N=C/c1c[nH]c2ccccc12` [CBK265272], the viability at 28.5 h, 10 µM is 85.8%. For `COc1cc(C2NC(=S)NC(c3ccccc3)=C2C(=O)c2ccccc2)cc(I)c1OCCO` (centres unmarked) [CBK267485], the viability at 28.5 h, 10 µM amounted to 86.7%. As for `O=C1Cc2cc3ccccc3cc2C2(CCN(C(=O)C3CCC3C(=O)O)CC2)N1` (centres unmarked) [CBK047252], the viability at 28.5 h, 10 µM was 92.5%. Under `O=C(COc1ccccc1)N1CCN(Cc2ccccn2)CC1` [CBK073265G] stands 86.1%; under `CCOCCn1c(CN2CCOCC2)nc2c1c(=O)n(C)c(=O)n2C` [CBK306062], 105%.

Consider `CN(C)CCO/N=C1\CC2(CCCC2)c2ccc(Cl)cc21` [CBK013334], for which the viability at 28.5 h, 10 µM is 78.1%. In the case of `CCOC(=O)COc1c(Cl)cc(/C=C/c2[nH]c(=O)[nH]c(=O)c2[N+](=O)[O-])cc1Cl` [CBK267003] it was 91.2%; in that of `CSCc1nc(CS(=O)(=O)Cc2cccc(C(F)(F)F)c2)no1` [CBK023617], 87.8%. Under `O=C(CCc1ccno1)NC(Cc1ccsc1)c1cccnc1` (centres unmarked) [CBK285395] stands 97.3%; under `CCCc1cc(=O)[nH]c(Nc2ccc(OCC)cc2)n1` [CBK288140], 112%. In the case of `N=c1n(CC(=O)c2ccc(-c3ccccc3)cc2)c2ccccc2n1Cc1ccccc1` [CBK262128B] it was 99.3%. As for `C#CCOC(=O)NC(=O)c1csnn1` [CBK006685], the viability at 28.5 h, 10 µM was determined as 114%. For the compound `O=C(CN1CCC(c2ccc(F)cc2)CC1)N1CCOCC1` [CBK283683], the viability at 28.5 h, 10 µM is 88.4%. In the case of `CN(C)CC(=O)N1c2ccccc2CCc2ccc(NC(=O)c3ccccc3)cc21` [CBK261289C] it was 94.2%; in that of `Cc1nc2c(c(=O)[nH]1)CN(Cc1ccc(Cl)cc1)CC2` [CBK282415], 84.5%; in that of `CCN1CCCC1CNC(=O)c1ccc(-c2ccc(OC)cc2)nc1N(C)C(C)=O` (centres unmarked) [CBK076491], 98.3%. Take `COc1ccc(C)cc1C1(CNC(=O)C2CCC(=O)N2)CCOCC1` (centres unmarked) [CBK304967]: the viability at 28.5 h, 10 µM is 94.8%.

For the compound `Cc1cc(C(=O)N2CCC(Cc3ccccc3-c3ccccc3)(C(=O)N(C)C)CC2)cs1` [CBK285676], the viability at 28.5 h, 10 µM was determined as 116%. On to `CN1CCC(=NNC(=O)CN(c2cccc(Cl)c2)S(=O)(=O)c2ccccc2)CC1` [CBK262489], for which the viability at 28.5 h, 10 µM was 98%.

On to `COc1cccc(OCC(O)CN2CCN(Cc3ccccc3)CC2)c1` (centres unmarked) [CBK074856C], for which the viability at 28.5 h, 10 µM is 108%. Regarding `COc1ccc([C@@]23CC[C@@H](NC(=O)c4ccc(Br)c(C)c4)C[C@@H]2N(C)CC3)cc1OC` [CBK076656T], the viability at 28.5 h, 10 µM is 81.2%. Under `CC(C)(C)c1cn(C[C@H]2CC3CCN2C[C@@H]3C(=O)N2CCOCC2)nn1` (some centres unmarked) [CBK288735] stands 87.8%; under `Cc1ccc2c(c1)C1(CC(=O)N(C)C1=O)C(=O)N2CCCOc1ccccc1` (centres unmarked) [CBK075496], 98.2%. For the compound `Cc1ccccc1CSCCNC(=O)Nc1ccc(Cl)cc1` [CBK268669], the viability at 28.5 h, 10 µM is 101%. Under `Cc1sc(NC(=S)NC(=O)Cc2cccc3ccccc23)c(C(N)=O)c1C` [CBK266344] stands 91.4%; under `CC(C)CC1CC(=O)Nc2c1c(=O)[nH]n2C(C)C` (centres unmarked) [CBK287924], 105%; under `CNCC(=O)N[C@H]1CCN2C(=O)c3ccc(Cl)cc3NC(=O)[C@@H]2C1` [CBK289566], 83.6%. On to `O=C1Nc2ccc(S(=O)(=O)NCC(O)c3ccc([N+](=O)[O-])cc3)c3cccc1c23` (centres unmarked) [CBK266745], for which the viability at 28.5 h, 10 µM was 88.1%.

For `CC(=O)NC1=NC(=O)CN1C` [CBK020181], the viability at 28.5 h, 10 µM worked out at 107%.

Take `COc1ccc(C(C)c2cc3c(cc2OCCO)OCO3)c(F)c1` (centres unmarked) [CBK200111]: the viability at 28.5 h, 10 µM was found to be 60.4%. In the case of `COc1ccc(-c2nc3ccccn3c2CN2CCC(C(=O)O)CC2)cc1OC` [CBK287063] it was 89.9%; in that of `CCCc1cc(C2CCCCCN2C(=O)c2cccnc2)no1` (centres unmarked) [CBK282987], 99.5%; in that of `CC1(C)CC(N2CNC(=N)N(C#N)C2)CC(C)(C)N1` [CBK262008], 90.7%. In the case of `COc1ccccc1NC(=O)Cn1cc(C(=O)c2cccs2)c2ccccc21` [CBK268256] it was 98.6%; in that of `NS(=O)(=O)c1ccc(NC(=S)NC(=O)c2ccc(Cl)cc2Cl)cc1` [CBK266265], 94%; in that of `CC(=O)Oc1cccc(C(=O)O)c1C` [CBK038235], 87.7%.

Take `CN1C(=O)COc2ccccc2CCCC[C@@H]2[C@H]1CCCN2C(=O)CNS(C)(=O)=O` [CBK292118]: the viability at 28.5 h, 10 µM stood at 113%.

As for `Cc1cnc(CNS(=O)(=O)c2c(C)noc2C)cn1` [CBK062328], the viability at 28.5 h, 10 µM was 104%. In the case of `Cc1cc(NC(=O)c2ccccc2)n(-c2nc(C)c(C)c(=O)[nH]2)n1` [CBK287655] it was 105%. Regarding `CN1CCN(CCC(=O)N2CCN(C(=O)c3ccco3)CC2)CC1` [CBK144481], the viability at 28.5 h, 10 µM came out at 89.3%.

Turning to `O=C(c1ccccc1F)N1CCC(n2cnc3cccnc32)CC1` [CBK283937], the viability at 28.5 h, 10 µM amounted to 87.5%. Consider `COCC(=O)N1CCC(c2nc(C)n3c(C)csc23)CC1` [CBK285198], for which the viability at 28.5 h, 10 µM is 96.7%. As to `Cc1noc([C@@H]2C[C@H](NC(=O)Nc3cccc(C#N)c3)CN2C)n1` [CBK288873], the viability at 28.5 h, 10 µM turned out to be 104%. In the case of `CCCC/C=C/c1nccnc1NCCc1ccncc1` [CBK037370] it was 99.9%; in that of `Cc1ccc(NC(=O)c2cc(NC(=O)C3CC=CCC3C(=O)O)ccc2N2CCOCC2)cc1Cl` (centres unmarked) [CBK265323], 105%. On to `CCC(=O)Nc1ccc(-c2nc3ccccc3[nH]2)cc1` [CBK287561], for which the viability at 28.5 h, 10 µM came to 98.7%. On to `CC(C)(C)NS(=O)(=O)c1cccc2nonc12` [CBK265569], for which the viability at 28.5 h, 10 µM was determined as 115%. On to `O=C(c1cccnc1)C1CCN(C(=O)CC2CC3CCC2C3)CC1` (centres unmarked) [CBK283530], for which the viability at 28.5 h, 10 µM amounted to 95.1%. `Cc1noc(C)c1C(=O)Nc1cnc(-c2ccc(F)cc2)c(-c2ccsc2)n1` [CBK036781]: the viability at 28.5 h, 10 µM worked out at 97.6%.

For `O=C(O)C(c1c[nH]c2ccccc12)N1CCOCC1` (centres unmarked) [CBK286739], the viability at 28.5 h, 10 µM was found to be 83.8%. In the case of `O=C(CCc1nc(-c2ccccc2F)no1)Nc1ccccc1[N+](=O)[O-]` [CBK268341] it was 86.9%; in that of `Cc1ccc(NC(=O)C2CCCCC2C(=O)O)cc1Cl` (centres unmarked) [CBK286938], 99.9%; in that of `O=C1NCCCC12CCN(Cc1cccc3cccnc13)CC2` [CBK284826], 92.3%.

Turning to `COc1cc(Nc2cncc(-c3ccc(N)cc3)n2)cc(OC)c1OC` [CBK065642], the viability at 28.5 h, 10 µM is 56.2%. In the case of `CC(C)C(CNCc1ccc(F)c(Cl)c1)c1ccnn1C` (centres unmarked) [CBK305130] it was 82.9%.

`Cc1nc(N)sc1-c1csc(Nc2ncccn2)n1` [CBK263307B]: the viability at 28.5 h, 10 µM was determined as 108%. With `Cc1cc(S(=O)(=O)Nc2cccc(Br)c2)c(C)cc1Cl` [CBK043652], the viability at 28.5 h, 10 µM was determined as 80.8%. In the case of `O=C(NCCN1CCOCC1)c1cc(-c2ccc(F)cc2)nc2ccc(Br)cc12` [CBK294450] it was 89.9%; in that of `CC(=O)N1CCC[C@H]2NC(=O)CNC(=O)C3(C/C=C/C[C@H]21)CCN(C(=O)C1CCC1)CC3` [CBK292177], 109%.

By viability is commonly meant a read-out of living cells in per cent, often relative to untreated cells.
